“And” between values parts separate entries of the source, which are not always exact repeats. Equal values may be shown once. Read-outs that look alike come from different tables or passages of the source.
Legend:
[1] = target: T1, PCSK9/LDLR interaction (His-tagged PCSK9, recombinant LDLR-AB domain) (Homo sapiens, UniProt Q8NBP7); assay: In vitro ELISA binding assay (Circulex) for inhibition of the PCSK9/LDLR interaction; settings: for IC50 for inhibition of the PCSK9/LDLR interaction, range in words: FIG. 4A
T1 construct: purchased Circulex
T1 sequence (Q8NBP7 153-692): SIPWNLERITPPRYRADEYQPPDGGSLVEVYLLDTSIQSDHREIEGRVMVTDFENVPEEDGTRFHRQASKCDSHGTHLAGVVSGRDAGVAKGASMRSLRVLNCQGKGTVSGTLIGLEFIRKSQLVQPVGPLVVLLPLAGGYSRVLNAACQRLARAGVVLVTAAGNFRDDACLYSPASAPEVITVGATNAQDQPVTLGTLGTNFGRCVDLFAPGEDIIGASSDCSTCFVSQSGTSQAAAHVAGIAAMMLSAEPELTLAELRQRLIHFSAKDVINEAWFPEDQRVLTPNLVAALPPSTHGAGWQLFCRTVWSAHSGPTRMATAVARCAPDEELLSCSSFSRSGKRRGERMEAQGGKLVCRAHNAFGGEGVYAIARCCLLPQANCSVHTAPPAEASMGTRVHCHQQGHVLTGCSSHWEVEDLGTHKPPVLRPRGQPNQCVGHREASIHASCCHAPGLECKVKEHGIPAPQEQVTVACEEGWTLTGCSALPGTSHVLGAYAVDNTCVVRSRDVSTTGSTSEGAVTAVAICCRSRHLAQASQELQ
T1 sequence (Q8NBP7 31-152 partner limits assumed): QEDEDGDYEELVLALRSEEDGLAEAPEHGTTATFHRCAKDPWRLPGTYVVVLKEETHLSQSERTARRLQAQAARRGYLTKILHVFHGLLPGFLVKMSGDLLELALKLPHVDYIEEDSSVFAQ
Protocol: FIG. 4A provides a graph of the effect of SBC-115,418, SBC-115,433, SBC-115,448, and SBC-115,462 on the PCSK9/LDLR interaction. An in vitro ELISA assay kit was utilized (Circulex). For screening inhibitors of the PCSK9/LDLR interaction, different concentrations (0.01 nM-100 μM) of selected compounds were incubated with His-tagged PCSK9 and then added to wells that were pre-coated with recombinant LDLR-AB domain. After incubation, the plate was washed and the amount of recombinant His-tagged PCSK9 was measured using the biotinylated anti-His-tag and horseradish peroxidase conjugated Streptavidin and quantitated using a BioTek Synergy™ 2 plate reader. The effect of each compound on the PCSK9 binding to the recombinant LDLR-AB domain was calculated.
FIG. 4B provides a graph of the effect of SBC-115,418 on the PCSK9/LDLR interaction under increased solubilization conditions (10% DMSO) (418s). An in vitro ELISA assay (Circulex) was utilized. Different concentrations ([…]-100 μM) of SBC-115,418 in DMSO were incubated with His-tagged PCSK9 and then added to wells that were pre-coated with recombinant LDLR-AB domain as described in FIG. 4A.
(§1) Testing of SBC-115,418 and analogs was performed in a binding assay to determine their ability to inhibit the PCSK9/LDLR interaction. SBC-115,418 inhibited the PCSK9/LDLR interaction with an IC50 in the sub-micro-molar range. Experimental details are provided hereinabove and in WO 2017/222953. […] Given the lipophilicity of lead compound SBC-115,418, a solubility study was undertaken to look at its effects on binding (FIG. 4B). An in vitro ELISA binding assay was performed at different concentrations (0.01 μM-100 μM) of SBC-115,418 under different solubilization conditions.

PCSK9 = assay: Test for secreted PCSK9 (synthesis, processing and secretion); format: cell-based; settings: in the cells or into the media
Source text: Experimental details are provided hereinabove and in WO 2017/222953.

LDLR = assay: Cell-based assay for LDLR upregulation; settings: compared to cells treated with same volume of DMSO
HepG2 cells = assay: Uptake of fluorescent Dil-LDL in HepG2 cells; format: cell-based; settings: 10 μM
Source text: FIG. 5 provides a graph of the effect of SBC-115,418, SBC-115,433, SBC-115,448, and SBC-115,462 on the uptake of fluorescent Dil-LDL in HepG2 Cells. The compounds were validated for their ability to increase uptake of Fluorescent Dil-LDL in HepG2 cells.

[2] = Lipophilicity and solubility of the compounds; format: physicochemical
Protocol: [formula] The size distribution of the nanoparticles in aqueous dispersions was determined using a Malvern zeta sizer (Malvern Instrumentation Co, Westborough, MA). 50 mg of the lyophilized nanoparticles were re-suspended in 2 mL of water. This nanoparticles solution was placed into a 3 mL, 4-sided, clear plastic cuvette, and measured directly. Shown are the HPLC chromatograms of SBC-115,418 used to construct the standard curve at different concentrations. Calibrator series of SBC-115,418 were prepared in DMSO by a 2-fold series dilution including 3.9, 7.8, 15.6, 31.5, 62.5, 125, and 250 μg/mL (left).
as §1

[3] = ELISA, read-out: in vitro inhibition of the PCSK9/LDLR interaction (IC50)

Row | IC50 for inhibition of the PCSK9/LDLR interaction, range in words ([1]; ELISA) | IC50 [1, 3] | logP [2] | solubility relative to SBC-115,418 [2] | IC50 ([1]; increased solubilization conditions (10% DMSO), FIG. 4B, read-out: IC50 of in vitro binding under improved solubility conditions) [µM] | solubility ([2]; 80% acetonitrile, organic solvent or mixture) [µg/mL] | Structure (SMILES) | effect on PCSK9 synthesis, processing and secretion (PCSK9) | level of LDLR versus DMSO control (LDLR) | Fluorescent Dil-LDL uptake (HepG2 cells)
1 | low micro-molar | < 5 µM |  |  |  |  | COc1ccc2oc(C(=O)Nc3ccc(C(=O)Nc4ccc(-c5ncco5)cc4)cc3)c(C)c2c1 [SBC-115,462] | no significant effect | significant upregulation | significant increase
2 | low micro-molar | < 5 µM |  |  |  |  | O=C(Nc1ccc(C(=O)Nc2ccc(-c3ncco3)cc2)c(F)c1)c1cc2ccccc2o1 [SBC-115,448] | no significant effect | significant upregulation | increase
3 | sub-micro-molar | < 5 µM and 0.19 µM | 4.5 | increased solubility |  |  | COc1ccc2oc(C(=O)Nc3ccc(C(=O)Nc4ccc(-c5nc6ccccc6[nH]5)cc4)cc3)c(C)c2c1 [SBC-115,477] | no significant effect | upregulation | 

The remaining lines, values behind:

Row | Structure (SMILES) | IC50 for inhibition of the PCSK9/LDLR interaction, range in words ([1]; ELISA) | IC50 [1, 3] | logP [2] | solubility relative to SBC-115,418 [2] | IC50 ([1]; increased solubilization conditions (10% DMSO), FIG. 4B, read-out: IC50 of in vitro binding under improved solubility conditions) [µM] | solubility ([2]; 80% acetonitrile, organic solvent or mixture) [µg/mL] | effect on PCSK9 synthesis, processing and secretion (PCSK9) | level of LDLR versus DMSO control (LDLR) | Fluorescent Dil-LDL uptake (HepG2 cells)
4 | O=C(Nc1ccc(-c2ncco2)cc1)c1ccc(NC(=O)c2cc3ccccc3o2)cc1 [SBC-115,433] | sub-micro-molar | < 5 µM |  |  |  |  | no significant effect | significant upregulation | increase
5 | COc1ccc2oc(C(=O)Nc3ccc(C(=O)Nc4ccc(-c5nc6ccccc6o5)cc4)cc3)c(C)c2c1 [SBC-115,418] | sub-micro-molar | < 5 µM |  |  | 0.05 | < 100 | no significant effect | significant upregulation | significant increase

Source: patent publication US12274693B2, “Anti-proprotein convertase subtilisin kexin type 9 (anti-PCSK9) nano-formulation of compounds and methods of using the same” (SHIFA BIOMEDICAL CORPORATION, priority 2018, dated 2025)
